The record followed here is patent US20110039825A1, “LIGANDS OF ALPHA-ADRENOCEPTORS, DOPAMINE, HISTAMINE, IMIDAZOLINE AND SEROTONIN RECEPTORS AND THEIR USE” (Alla Chem, LLC, priority 2007, published 2011).

The target in test [1] is T1, recombinant human 5-HT2B receptor (Homo sapiens, UniProt P41595).
T1 construct: expressed in transfected cells; host or cells: CHO-K1
The test is described as follows: radioligand binding to serotonin receptor 5-HT2B ([3H] Lysergic acid diethylamide). As to conditions: 10 μM ligand.
Protocol: Screening of the disclosed compounds for potential ability to interact with serotonin receptor 5-HT2A is carried out by method of radioligand binding. For this purpose membrane species are prepared from CHO-K1 cells comprising recombinant human 5-HT2B receptor by homogenization of recombinant cells in glass homogenizer with the subsequent separation of plasmatic membranes from cell nuclei, mitochondrias and cell wreckages by differential centrifugation. […] After incubation the samples are filtered in vacuo on glass-microfiber filters G/F (Millipor, USA), filters are washed three times with cold solution of medium and radioactivity is measured by scintillation counter MicroBeta 340 (Perkin Elmer, USA). […] Ketanserin is used as positive control. The tested compounds' binding to the receptor is determined by their ability to displace the radioligand and is expressed in percent of displacement (% I). Values of % I are calculated according to the following equation:
wherein: TA—is the overall radioactivity in the presence of radioligand only, CA—is the radioactivity in the presence of radioligand and tested compound and NA—is the radioactivity in the presence of radioligand and Serotonin (10 μM).

In test [2] the target is T2, serotonin receptor 5-HT1B (Rattus norvegicus, UniProt P28564).
T2 construct: membrane species are prepared from rat brains (Wistar) by homogenization of species of rat brain-cortices; from tissue; host or cells: rat (Wistar) brain cortex membranes
T2 sequence (P28564 whole entry): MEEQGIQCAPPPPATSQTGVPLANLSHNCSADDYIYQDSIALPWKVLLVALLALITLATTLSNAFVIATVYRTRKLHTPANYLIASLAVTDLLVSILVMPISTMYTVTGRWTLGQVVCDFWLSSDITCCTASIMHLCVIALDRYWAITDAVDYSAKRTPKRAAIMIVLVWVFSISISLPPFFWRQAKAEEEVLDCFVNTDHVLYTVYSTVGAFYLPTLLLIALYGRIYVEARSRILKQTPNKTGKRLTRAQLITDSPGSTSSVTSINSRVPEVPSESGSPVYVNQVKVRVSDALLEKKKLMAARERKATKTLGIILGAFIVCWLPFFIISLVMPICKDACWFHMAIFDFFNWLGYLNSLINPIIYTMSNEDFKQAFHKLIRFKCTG
The test is described as follows: radioligand binding to serotonin receptor 5-HT1B ([125I] cyanopindolol). As to conditions: 10 μM ligand.
Protocol: Screening of the disclosed compounds for potential ability to interact with serotonin receptor 5-HT1B is carried out by method of radioligand binding. For this purpose membrane species are prepared from rat brains (Wistar) by homogenization of species of rat brain-cortices in glass homogenizer with the subsequent separation of plasmatic membranes from cell nuclei, mitochondrias and cell wreckages by differential centrifugation. […] After incubation the samples are filtered in vacuo on glass-microfiber filters G/F (Millipor, USA), filters are washed three times with cold solution of medium and radioactivity is measured by scintillation counter MicroBeta 340 (Perkin Elmer, USA). […] Serotonin is used as positive control.
Tested compounds' binding to the receptor is determined by their ability to displace radioligand and expressed in percent of displacement (% I). Values of % I are calculated according to the following equation:
wherein: TA—is overall radioactivity in the presence of radioligand only, CA—is radioactivity in the presence of radioligand and tested compound and NA—is radioactivity in the presence of radioligand and Serotonin (10 μM).

The target of test [3] is T3, recombinant human 5-HT1A (Homo sapiens, UniProt P08908).
T3 construct: expressed in transfected cells; host or cells: CHO
T3 sequence (P08908 1-422): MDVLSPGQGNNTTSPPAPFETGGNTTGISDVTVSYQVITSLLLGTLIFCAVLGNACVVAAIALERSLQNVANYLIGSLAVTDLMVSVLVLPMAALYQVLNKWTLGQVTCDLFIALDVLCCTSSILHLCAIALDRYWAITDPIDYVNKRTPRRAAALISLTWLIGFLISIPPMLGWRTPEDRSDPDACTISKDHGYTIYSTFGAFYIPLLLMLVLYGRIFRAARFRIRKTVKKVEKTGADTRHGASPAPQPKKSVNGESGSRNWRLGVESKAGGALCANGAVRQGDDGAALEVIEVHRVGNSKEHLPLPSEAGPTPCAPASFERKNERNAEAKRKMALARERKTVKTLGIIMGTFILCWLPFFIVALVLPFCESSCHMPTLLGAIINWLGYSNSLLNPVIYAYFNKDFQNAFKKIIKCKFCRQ
The test is described as follows: radioligand binding to serotonin receptor 5-HT1A ([3H] 8-OH-DPAT). As to conditions: 10 μM ligand. The source says:
J Pharmacol Exp Ther. 306(1): 301-309, 2003]. […] Metergoline is used as positive control.

Test [4] concerns mice. The test is described as follows: Mice Training in Morris Water Maze (Scopolamine). The following applies: unitary introduction of active ingredient. The format is in vivo. How it is done: Mice Training in Morris Water Maze. A round pool which was filled with water at 20-22° C. was used. A round ceramic platform of 14 cm height was placed in the pool. Animals's behavior was registered with automated computer videosystem in combination with software package of movement analysis Any-maze (Stoelting Co., US). Before testing mice suitable for training were selected. That was done by placing the platform 1 cm above the water level and putting an animal on the platform for 20 seconds. Then the mouse was sunk into the water on the opposite side of the pool, allowed to find the platform and climbed it within 60 seconds, where it was left for additional 20 seconds. After that the mouse was repeatedly immersed into water on the opposite side of the pool and allowed to look for platform. If it failed in finding the platform within 60 seconds the experimentator helped it to find the platform and climb it. If the mice could not find the platform itself in two consecutive attempts it was excluded from experiment.
During the next two days the platform was placed 0.5 centimeter lower the water level. Every day the mice were given four attempts for finding the platform within 60 seconds. The time interval between the attempts was 20 seconds, during which the mice stayed on the platform. Every day before the first attempt mouse was placed on the platform for 20 seconds. The time needed for finding and climbing the platform was registered. The animals were sunk in water in 3 different places on the side of the pool opposite to platform. On each day of two-day testing 35-40 minutes before the beginning of training the mice were injected intraintestinally with physiological solution, Scopolamine or Scopolamine in combination with investigated compound. At least 8 animals were used in each group.
On the third day the platform was removed and each animal was placed one time in the pool for a period of 60 seconds. The time each mouse spent in the area where the platform had been located during the previous days was registered. This time interval was regarded as a measure of effectiveness of training fulfilled during the previous two days. The testing was carried out during the day time in isolated laboratory using “white noise” at level of about 70 decibel above the human hearing threshold.

For test [5], the system named is male mice of BALB/c line. The test is described as follows: Passive Avoidance of mice in the Shuttle Chamber, memory disturbed by Scopolamine. Type of test: in vivo. The following applies: Scopolamine 0.3 mg/kg. How it is done:
A shuttle chamber (Ugo Basile, Italy) consisted of two sections was used. […] The sections were connected through a hole which could be overlapped by a vertical door. The floor was made of transverse metal bars on which DC current impulses could be fed. Experiments were carried out in aged male mice of BALB/c line weighing 20-24 grams.
Each group consisted of at least 8 animals. Animal was placed in light section, and latent period of the first entry into dark chamber was registered. Then the vertical door was closed and the animal was punished by 0.6 mA DC current for 3 seconds. After that it was taken back to its homecage. In 22-24 hours the same animal was placed again in light section of the shuttle chamber and latent period of its first entry into dark section, the total time of its stay in light section, and the number of entries into dark section, were registered. Each monitoring lasted for 5 minutes.
Testing was carried out during the day time in isolated laboratory using white noise at level of about 70 decibel above human hearing threshold.
Scopolamine causes the disturbance of training (memory loss) that results in […].

For test [6], the system named is male mice of BALB/c line. The test is described as follows: Mice Behavior in the Elevated Plus Maze. Type of test: in vivo. The source says:
The length of each arm of the maze was 30 cm, width is 5 cm, and height of the walls was 15 cm. Two opposite arms were closed from both sides and end faces by transparent walls, the other two arms were lit and opened. A mouse was placed in the center of the maze and for the next five minutes the number of entries into opened and closed arms and the time spent in each type of arms was registered. […] The animals usually avoided opened arms (the preference index is between 0.2 and 0.3). Compounds with tranquilizing action increased this index up to 0.5-0.6 or even more and reduced the number of defecations without changing the overall motion activity of the mice (the total number of their entries to the arms).

Test [7] relates to male mice of BALB/c line. The test is described as follows: Passive Avoidance of mice in the Shuttle Chamber, memory disturbed by MK-801. The format is in vivo. The following applies: MK-801 0.1 mg/kg. The procedure:
The testing was carried out as in example 14. […] Concurrently, physiological solution of MK-801 in combination with active ingredient 1.9 (1) 1/2NDSA was injected intraintestinally to independent group of mice before training

T1 sequence (P41595 whole entry): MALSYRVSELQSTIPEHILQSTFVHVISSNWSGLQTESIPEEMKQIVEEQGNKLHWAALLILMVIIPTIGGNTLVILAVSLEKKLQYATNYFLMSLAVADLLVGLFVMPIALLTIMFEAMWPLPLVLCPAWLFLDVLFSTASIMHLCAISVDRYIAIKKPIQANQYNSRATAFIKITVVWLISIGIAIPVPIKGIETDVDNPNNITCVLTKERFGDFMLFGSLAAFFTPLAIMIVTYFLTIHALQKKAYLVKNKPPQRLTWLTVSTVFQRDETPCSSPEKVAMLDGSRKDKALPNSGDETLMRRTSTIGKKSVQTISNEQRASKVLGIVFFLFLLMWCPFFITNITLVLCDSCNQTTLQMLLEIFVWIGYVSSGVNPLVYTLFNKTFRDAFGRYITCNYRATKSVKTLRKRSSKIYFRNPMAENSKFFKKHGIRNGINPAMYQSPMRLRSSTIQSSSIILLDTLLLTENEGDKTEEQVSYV

As to `CN1CCc2c(c3cc(F)ccc3n2CCc2ccccc2)C1.Cl` [1.1.2(1-6)•HCl], in test [1], the 5-HT2B % inhibition is recorded as 85%. The 5-HT1B % inhibition in test [2] was determined as 25%. In addition, the 5-HT1A % inhibition in test [3] worked out at 16%.
As to `Cc1ccc2c(c1)c1c(n2CCc2ccc(C)nc2)CCN(C)C1.Cl.Cl` [1.1.2(4-2)], the “memory disorders caused by Scopolamine in Morris water maze” value in test [4] was “decreasing memory disorders coused by Scopalomine”. The “enhancement of memory disturbed by Scopolamine (passive avoidance)” value in test [5] was “improve memory”. The “anxiolytic (tranquilizing) action in elevated plus maze” value in test [6] (doses of 0.05 and 0.1 mg/kg) is reported as “analogous action”.
Take `CN1CCc2c(c3ccccc3n2Cc2ccccc2)C1` [1.9(1)·1/2NDSA, bis-(5-benzyl-2-methyl-2,3,4,5-tetrahydro-1H-pyrido[4,3-b]indole) naphthalene-1,5-disulfonate]: the “enhancement of memory disturbed by MK-801 (passive avoidance)” value in test [7] was “act as nootropic”. Moreover, the “enhancement of memory disturbed by Scopolamine (passive avoidance)” value in test [5] is on record as “nootropic action”. For the same compound, the “anxiolytic (tranquilizing) action in elevated plus maze” value in test [6] (mice BALB/c) was “anxiolytic (tranquilizing) action which is comparable with the activity of Buspirone and Lorasepam”.
